In ChEMBL document CHEMBL4392835, “New heteroaryl carbamates: Synthesis and biological screening in vitro and in mammalian cells of wild-type and mutant HIV-protease inhibitors” (Bioorg Med Chem, 2019):
Activity calls are given as the source filed them. No cut-off for these calls is given here.

Columns and labels:
[1] = biological target: Protease (Human immunodeficiency virus 1) (UniProt Q9YQ12); assay: Inhibition of GFP-tagged HIV1 protease transfected in HEK293 cells at 30 uM incubated for 24 hrs by fluorescence microscopy; type: cell-based
[2] = biological target: Protease (Human immunodeficiency virus 1) (UniProt Q9YQ12); assay: Inhibition of GFP-tagged HIV1 protease transfected in HEK293 cells at 10 to 30 uM incubated for 24 hrs by FACS analysis; type: cell-based
[3] = Cytotoxicity in HEK293 cells assessed as reduction in cell viability after 24 hrs by MTT assay; type: cell-based; details: human
[4] = Inhibition of HIV protease assessed as reduction in enzyme-mediated substrate hydrolysis using Abz-Thr-Ile-Nle-Phe(NO2)-Gln-Arg fluorogenic substrate; design: species or system Human immunodeficiency virus
[5] = tested on: Protease (Human immunodeficiency virus 1), Q9YQ12 [V82A]; assay: Inhibition of GFP-tagged HIV1 protease V82A mutant transfected in HEK293 cells at 10 uM incubated for 24 hrs by fluorescence microscopy; type: cell-based
[6] = Intrinsic clearance in human liver microsomes assessed per mg protein; type: ADME, Microsome; details: read-out: CLH
[7] = Intrinsic clearance in rat liver microsomes assessed per mg protein; type: ADME, Microsome; details: read-out: CLH
[8] = Cytotoxicity in HEK293 cells assessed as reduction in cell viability by MTT assay; type: cell-based; details: human
[9] = biological target: Protease (Human immunodeficiency virus 1) (UniProt Q9YQ12); assay: Inhibition of GFP-tagged HIV1 protease transfected in HEK293 cells at 10 uM incubated for 24 hrs by FACS analysis; type: cell-based
[10] = tested on: Protease (Human immunodeficiency virus 1), Q9YQ12 [V32I]; assay: Inhibition of GFP-tagged HIV1 protease V32I mutant transfected in HEK293 cells at 10 uM incubated for 24 hrs by fluorescence microscopy; type: cell-based
[11] = biological target: Protease (Human immunodeficiency virus 1) (UniProt Q9YQ12); assay: Inhibition of GFP-tagged HIV1 protease transfected in HEK293 cells at 30 uM incubated for 24 hrs by FACS analysis; type: cell-based
[12] = tested on: Protease (Human immunodeficiency virus 1), Q9YQ12 [V82A]; assay: Inhibition of GFP-tagged HIV1 protease V82A mutant transfected in HEK293 cells at 30 uM incubated for 24 hrs by fluorescence microscopy; type: cell-based
[13] = biological target: Protease (Human immunodeficiency virus 1) (UniProt Q9YQ12); assay: Inhibition of GFP-tagged HIV1 protease transfected in HEK293 cells at 10 uM incubated for 24 hrs by fluorescence microscopy; type: cell-based
[14] = tested on: Protease (Human immunodeficiency virus 1), Q9YQ12 [V32I]; assay: Inhibition of GFP-tagged HIV1 protease V32I mutant transfected in HEK293 cells at 30 uM incubated for 24 hrs by fluorescence microscopy; type: cell-based

Protease (Human immunodeficiency virus 1), sequence (Q9YQ12 as listed by the source): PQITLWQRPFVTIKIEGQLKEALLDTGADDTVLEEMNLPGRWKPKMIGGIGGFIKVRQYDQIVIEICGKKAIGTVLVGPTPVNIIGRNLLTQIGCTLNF
Protease (Human immunodeficiency virus 1), Q9YQ12 [V32I], sequence (Q9YQ12 entry or part of it V32I): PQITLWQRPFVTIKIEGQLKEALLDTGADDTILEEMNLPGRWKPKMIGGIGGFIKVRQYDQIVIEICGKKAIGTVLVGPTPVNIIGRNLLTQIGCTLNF
Protease (Human immunodeficiency virus 1), Q9YQ12 [V82A], sequence (Q9YQ12 entry or part of it V82A): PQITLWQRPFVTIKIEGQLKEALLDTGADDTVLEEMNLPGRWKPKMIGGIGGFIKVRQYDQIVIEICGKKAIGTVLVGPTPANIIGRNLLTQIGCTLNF

Row | Compound | inhibition call (active/not active) [1] | inhibition [2] | CC50 at 24 h [3] [µM] | IC50 [4] [µM] | inhibition [5] | microsomal CLint [6] [µL/min/mg] | microsomal CLint [7] [µL/min/mg] | CC50 [8] [µM] | inhibition [9] | inhibition [10] | inhibition [11] | inhibition [12] | inhibition [13] | inhibition [14]
1 | COc1ccc(S(=O)(=O)N(CC(C)C)C[C@@H](O)CNC(=O)Oc2ccc3occc3c2)cc1 | inactive | inactive | > 60 | 15.4 |  |  |  |  |  |  |  |  |  | 
2 | COc1ccc(S(=O)(=O)N(CC(C)C)C[C@@H](O)CNC(=O)Oc2ccc3[nH]ccc3c2)cc1 | inactive | inactive | > 60 | 13.4 |  |  |  |  |  |  |  |  |  | 
3 | COc1ccc(S(=O)(=O)N(CC(C)C)C[C@@H](O)[C@H](Cc2ccccc2)NC(=O)Oc2ccc3[nH]ccc3c2)cc1 | Active | Active | > 60 | ≤ 0.0006 | Active | 548 | 522 | 2.8 | Active | Active |  |  |  | 
4 | COc1ccc(S(=O)(=O)N(CC(C)C)C[C@@H](O)[C@H](Cc2ccccc2)NC(=O)Oc2ccc3sccc3c2)cc1 | inactive | inactive | > 60 | 0.0108 |  |  |  |  |  |  |  |  |  | 
5 | COc1ccc(S(=O)(=O)N(CC(C)C)C[C@@H](O)CNC(=O)Oc2ccc3sccc3c2)cc1 | inactive | inactive | > 60 | 0.049 |  |  |  | > 100 |  |  |  |  |  | 
6 | COc1ccc(S(=O)(=O)N(CC(C)C)C[C@@H](O)[C@H](Cc2ccccc2)NC(=O)Oc2ccc3occc3c2)cc1 | Active | Active | > 60 | ≤ 0.0006 |  | 121 | 26.8 | > 100 |  |  | Active | Active | Active | Active
7 | CC(C)CN(C[C@@H](O)[C@H](Cc1ccccc1)NC(=O)O[C@H]1CO[C@H]2OCC[C@H]21)S(=O)(=O)c1ccc(N)cc1 | Active | Active |  |  |  |  |  |  |  |  |  |  |  | 
